Test results published in patent US20120245137A1 (Zalicus Pharmaceuticals Ltd., priority 2009, published 2012).

What was measured:
Format in all cases: cell-based
[1] = molecular target: human α1G T-type channels (Homo sapiens, UniProt O43497); test: T-type calcium channel block, whole cell patch clamp, α1G; conditions: HEK cells stably expressing human α1G; mainly non-inactivated protocol; values above 10,000 nM represented as 10000
In short: (§1)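 Cells are stable HEK 293 lines carrying human α1G or α1H channels, patched in whole-cell mode. Resting block comes from the non-inactivated pre-pulse; voltage-dependent block from the inactivated protocol.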

[2] = molecular target: human α1H T-type channels (Homo sapiens, UniProt O95180); test: T-type calcium channel block, whole cell patch clamp, α1H; conditions: HEK cells stably expressing human α1H; mainly non-inactivated protocol; values above 10,000 nM represented as 10000
In short: as §1

[3] = molecular target: N-type calcium channel subunits (α1B, α2δ, and β3a) (Homo sapiens, UniProt Q00975); test: Block of Cav2.2 channel, whole cell voltage clamp, manual and PatchXpress; conditions: Table 5; table follows Assay Example 3 (whole cell voltage clamp / PatchXpress); assay not given
In short: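 Percent block taken as current amplitude ratio with versus without compound, applied in rising doses; IC50 fitted where one cell received multiple doses. Protocol: 50 ms pulses to +20 mV at 0.067 Hz from […] or −90 mV holding; P/n leak subtraction, no junction-potential correction; manual and PatchXpress recordings.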

Chain of human α1H T-type channels (O95180 whole entry): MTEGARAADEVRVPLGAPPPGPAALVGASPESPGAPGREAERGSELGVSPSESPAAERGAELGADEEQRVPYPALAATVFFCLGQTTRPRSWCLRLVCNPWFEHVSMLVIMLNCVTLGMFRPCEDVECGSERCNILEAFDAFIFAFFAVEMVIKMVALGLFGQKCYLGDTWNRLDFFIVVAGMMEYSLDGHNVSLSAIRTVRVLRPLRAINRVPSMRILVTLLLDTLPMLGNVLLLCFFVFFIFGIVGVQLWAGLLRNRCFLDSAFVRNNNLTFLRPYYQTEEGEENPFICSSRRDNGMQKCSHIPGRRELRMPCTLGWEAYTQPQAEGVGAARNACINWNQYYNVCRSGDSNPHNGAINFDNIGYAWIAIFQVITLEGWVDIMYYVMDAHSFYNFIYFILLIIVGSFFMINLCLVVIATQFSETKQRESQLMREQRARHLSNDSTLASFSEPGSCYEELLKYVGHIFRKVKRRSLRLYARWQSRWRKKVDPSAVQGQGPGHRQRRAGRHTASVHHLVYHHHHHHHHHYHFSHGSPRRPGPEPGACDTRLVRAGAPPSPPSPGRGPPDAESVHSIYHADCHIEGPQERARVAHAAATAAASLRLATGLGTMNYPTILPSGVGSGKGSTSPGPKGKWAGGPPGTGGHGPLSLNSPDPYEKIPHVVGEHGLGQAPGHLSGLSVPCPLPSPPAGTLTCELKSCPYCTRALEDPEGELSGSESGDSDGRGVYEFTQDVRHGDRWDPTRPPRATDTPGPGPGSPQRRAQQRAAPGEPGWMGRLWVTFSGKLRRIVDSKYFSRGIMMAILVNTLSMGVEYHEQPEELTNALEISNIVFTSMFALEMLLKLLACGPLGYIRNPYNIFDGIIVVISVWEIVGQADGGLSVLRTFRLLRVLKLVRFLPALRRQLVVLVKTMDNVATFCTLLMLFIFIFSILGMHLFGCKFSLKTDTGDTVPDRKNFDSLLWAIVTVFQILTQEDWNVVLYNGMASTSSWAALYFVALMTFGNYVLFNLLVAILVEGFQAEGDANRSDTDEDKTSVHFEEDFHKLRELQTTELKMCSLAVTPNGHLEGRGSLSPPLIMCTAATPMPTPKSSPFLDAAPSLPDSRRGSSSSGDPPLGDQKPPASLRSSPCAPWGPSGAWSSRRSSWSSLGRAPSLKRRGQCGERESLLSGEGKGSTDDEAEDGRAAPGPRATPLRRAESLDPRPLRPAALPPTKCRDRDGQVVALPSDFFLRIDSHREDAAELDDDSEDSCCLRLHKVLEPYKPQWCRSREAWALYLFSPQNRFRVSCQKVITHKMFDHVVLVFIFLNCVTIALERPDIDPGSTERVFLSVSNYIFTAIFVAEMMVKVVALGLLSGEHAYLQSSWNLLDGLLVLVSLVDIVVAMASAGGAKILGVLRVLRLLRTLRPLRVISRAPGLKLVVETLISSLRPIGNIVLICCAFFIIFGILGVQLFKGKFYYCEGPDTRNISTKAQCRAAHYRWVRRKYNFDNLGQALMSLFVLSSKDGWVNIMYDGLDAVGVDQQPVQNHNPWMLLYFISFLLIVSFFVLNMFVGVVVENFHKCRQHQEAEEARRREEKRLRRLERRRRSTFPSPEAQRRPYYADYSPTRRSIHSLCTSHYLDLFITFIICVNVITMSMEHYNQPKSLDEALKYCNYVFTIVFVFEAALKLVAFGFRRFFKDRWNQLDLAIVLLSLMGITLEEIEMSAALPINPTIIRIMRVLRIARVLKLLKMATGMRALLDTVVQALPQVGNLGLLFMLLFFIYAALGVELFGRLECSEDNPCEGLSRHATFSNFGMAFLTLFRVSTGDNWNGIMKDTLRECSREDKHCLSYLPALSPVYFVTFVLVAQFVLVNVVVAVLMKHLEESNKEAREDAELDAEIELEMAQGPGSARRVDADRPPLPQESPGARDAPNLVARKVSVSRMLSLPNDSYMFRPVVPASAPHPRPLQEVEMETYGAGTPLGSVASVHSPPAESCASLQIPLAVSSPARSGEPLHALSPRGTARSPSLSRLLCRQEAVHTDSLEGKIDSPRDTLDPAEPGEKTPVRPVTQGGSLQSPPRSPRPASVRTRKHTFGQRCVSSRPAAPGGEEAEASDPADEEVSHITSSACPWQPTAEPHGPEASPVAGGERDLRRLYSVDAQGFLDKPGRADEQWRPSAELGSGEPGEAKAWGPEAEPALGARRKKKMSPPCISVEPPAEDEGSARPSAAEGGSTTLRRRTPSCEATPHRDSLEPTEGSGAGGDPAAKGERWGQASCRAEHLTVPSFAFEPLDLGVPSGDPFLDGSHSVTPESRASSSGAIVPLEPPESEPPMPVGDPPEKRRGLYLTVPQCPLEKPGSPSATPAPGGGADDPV
Chain of human α1G T-type channels (O43497 whole entry): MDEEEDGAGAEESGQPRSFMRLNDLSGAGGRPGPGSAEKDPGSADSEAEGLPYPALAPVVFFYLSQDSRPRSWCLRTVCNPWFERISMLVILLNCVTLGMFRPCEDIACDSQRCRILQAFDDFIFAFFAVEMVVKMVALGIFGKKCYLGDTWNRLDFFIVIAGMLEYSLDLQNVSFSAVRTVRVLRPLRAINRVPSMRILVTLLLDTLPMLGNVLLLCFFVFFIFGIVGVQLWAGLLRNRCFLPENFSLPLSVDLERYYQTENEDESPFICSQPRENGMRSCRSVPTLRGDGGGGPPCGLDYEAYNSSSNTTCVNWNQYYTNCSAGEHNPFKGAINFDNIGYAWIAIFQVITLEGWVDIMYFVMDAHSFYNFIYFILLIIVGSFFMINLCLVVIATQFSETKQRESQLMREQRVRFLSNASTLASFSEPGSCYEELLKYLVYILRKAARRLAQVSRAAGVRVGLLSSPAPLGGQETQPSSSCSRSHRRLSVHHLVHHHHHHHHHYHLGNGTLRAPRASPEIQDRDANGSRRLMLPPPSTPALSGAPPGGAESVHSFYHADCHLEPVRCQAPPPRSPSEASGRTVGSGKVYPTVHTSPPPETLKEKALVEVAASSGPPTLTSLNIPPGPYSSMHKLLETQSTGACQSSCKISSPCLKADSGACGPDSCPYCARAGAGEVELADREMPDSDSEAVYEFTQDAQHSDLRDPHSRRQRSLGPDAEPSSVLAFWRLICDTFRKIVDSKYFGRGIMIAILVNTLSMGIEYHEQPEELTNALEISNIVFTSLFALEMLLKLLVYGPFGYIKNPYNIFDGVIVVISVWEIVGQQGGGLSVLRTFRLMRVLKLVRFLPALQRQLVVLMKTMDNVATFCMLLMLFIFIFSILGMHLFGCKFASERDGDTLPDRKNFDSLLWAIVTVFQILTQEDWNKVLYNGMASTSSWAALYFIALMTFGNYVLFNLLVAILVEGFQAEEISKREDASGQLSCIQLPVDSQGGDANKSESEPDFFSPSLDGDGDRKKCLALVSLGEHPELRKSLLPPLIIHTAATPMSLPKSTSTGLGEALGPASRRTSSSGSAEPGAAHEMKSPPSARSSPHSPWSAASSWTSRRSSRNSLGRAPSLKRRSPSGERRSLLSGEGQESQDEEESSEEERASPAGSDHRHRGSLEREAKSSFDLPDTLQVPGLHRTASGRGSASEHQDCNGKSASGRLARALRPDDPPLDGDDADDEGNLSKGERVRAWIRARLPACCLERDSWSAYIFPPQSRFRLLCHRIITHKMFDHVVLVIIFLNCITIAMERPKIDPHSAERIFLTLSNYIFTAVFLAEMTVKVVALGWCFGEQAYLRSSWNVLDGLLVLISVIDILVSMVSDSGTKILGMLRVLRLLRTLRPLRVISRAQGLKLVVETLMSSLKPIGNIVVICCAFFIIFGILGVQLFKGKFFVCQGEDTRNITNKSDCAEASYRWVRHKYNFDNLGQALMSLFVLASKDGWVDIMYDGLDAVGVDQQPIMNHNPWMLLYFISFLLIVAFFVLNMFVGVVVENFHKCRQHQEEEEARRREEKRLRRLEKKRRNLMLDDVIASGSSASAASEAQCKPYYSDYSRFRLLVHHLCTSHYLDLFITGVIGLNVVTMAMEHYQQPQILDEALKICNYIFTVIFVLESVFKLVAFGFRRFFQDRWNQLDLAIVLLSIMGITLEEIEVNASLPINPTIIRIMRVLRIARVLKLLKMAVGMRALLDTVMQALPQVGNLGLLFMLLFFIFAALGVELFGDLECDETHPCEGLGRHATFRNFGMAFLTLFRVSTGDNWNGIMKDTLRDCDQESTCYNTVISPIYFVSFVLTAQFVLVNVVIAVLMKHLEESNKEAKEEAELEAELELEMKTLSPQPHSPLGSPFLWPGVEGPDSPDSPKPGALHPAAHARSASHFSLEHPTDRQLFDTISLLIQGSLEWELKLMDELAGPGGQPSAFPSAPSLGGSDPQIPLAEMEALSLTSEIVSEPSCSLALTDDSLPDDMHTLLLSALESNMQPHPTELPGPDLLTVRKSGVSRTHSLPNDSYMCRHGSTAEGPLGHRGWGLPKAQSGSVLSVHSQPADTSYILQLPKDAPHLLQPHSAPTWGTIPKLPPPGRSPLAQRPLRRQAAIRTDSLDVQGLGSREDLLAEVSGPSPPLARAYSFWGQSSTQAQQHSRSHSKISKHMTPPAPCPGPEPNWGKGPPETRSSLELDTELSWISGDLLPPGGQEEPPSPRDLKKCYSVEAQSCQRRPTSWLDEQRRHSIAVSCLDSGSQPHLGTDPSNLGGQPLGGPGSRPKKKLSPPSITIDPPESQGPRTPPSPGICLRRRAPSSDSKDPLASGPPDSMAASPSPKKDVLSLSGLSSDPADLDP

| SMILES | IC50 [1] | IC50 [2] | IC50 [3] |
| --- | --- | --- | --- |
| O=C(N[C@H]1CC[C@@](F)(S(=O)(=O)c2cccc(C(F)(F)F)c2)CC1)c1nc2cc(C(F)(F)F)ccc2[nH]1 [Compound 85, N-((1S,4S)-4-fluoro-4-(3-(trifluoromethyl)phenylsulfonyl)cyclohexyl)-5-(trifluoromethyl)-1H-benzo[d]imidazole-2-carboxamide] | 2.15 µM | 1.23 µM | 850 nM |
| O=C(N[C@H]1CC[C@@](F)(S(=O)(=O)c2cccc(C(F)(F)F)c2)CC1)c1cc(F)cc(Cl)c1 [Compound 86, 3-chloro-5-fluoro-N-((1S,4S)-4-fluoro-4-(3-(trifluoromethyl)phenylsulfonyl)cyclohexyl)benzamide] | > 10 µM | 1.93 µM | 190 nM |
| COc1cc(F)cc(C(=O)N[C@H]2CC[C@@](F)(S(=O)(=O)c3cccc(C(F)(F)F)c3)CC2)c1 [Compound 87, 3-fluoro-N-((1S,4S)-4-fluoro-4-(3-(trifluoromethyl)phenylsulfonyl)cyclohexyl)-5-methoxybenzamide] | 6.44 µM | 2.1 µM | 240 nM |
| CN(C(=O)CN[C@H]1CC[C@@](F)(S(=O)(=O)c2cccc(C(F)(F)F)c2)CC1)C(C)(C)C [Compound 88, N-tert-butyl-2-((1S,4S)-4-fluoro-4-(3-(trifluoromethyl)phenylsulfonyl)cyclohexylamino)-N-methylacetamide] | > 10 µM | 3.03 µM | 70 nM |
| CC1(NC(=O)CN[C@H]2CC[C@@](F)(S(=O)(=O)c3cccc(C(F)(F)F)c3)CC2)CCC1 [Compound 89, 2-((1S,4S)-4-fluoro-4-(3-(trifluoromethyl)phenylsulfonyl)cyclohexylamino)-N-(1-methylcyclobutyl)acetamide] | 1.71 µM | 0.99 µM | 120 nM |
| CC1(NC(=O)CN[C@H]2CC[C@](F)(S(=O)(=O)c3cccc(C(F)(F)F)c3)CC2)CCC1 [Compound 91, 2-((1R,4R)-4-fluoro-4-(3-(trifluoromethyl)phenylsulfonyl)cyclohexylamino)-N-(1-methylcyclobutyl)acetamide] | 2.45 µM | 0.94 µM | 410 nM |
| CC1(NC(=O)c2ccc(F)c(C(F)(F)F)c2)CCC(F)(S(=O)(=O)c2cccc(C(F)(F)F)c2)CC1 (stereo not drawn) [Compound 92, 4-fluoro-N-(4-fluoro-1-methyl-4-(3-(trifluoromethyl)phenylsulfonyl)cyclohexyl)-3-(trifluoromethyl)benzamide] | 2.23 µM | 0.64 µM | 330 nM |
| COc1cc(F)cc(C(=O)NC2(C)CCC(F)(S(=O)(=O)c3cccc(C(F)(F)F)c3)CC2)c1 (stereo not drawn) [Compound 94, 3-fluoro-N-(4-fluoro-1-methyl-4-(3-(trifluoromethyl)phenylsulfonyl)cyclohexyl)-5-methoxybenzamide] | > 10 µM | > 10 µM | 230 nM |
| CC(C)(C)OC(=O)N[C@H]1CC[C@H](S(=O)(=O)c2cccc(C(F)(F)F)c2)CC1 [Compound 95, tert-butyl(1R,4R)-4-(3-(trifluoromethyl)phenylsulfonyl) cyclohexylcarbamate] | 6.97 µM | 2.15 µM | 1640 nM |
| CC(C)(C)OC(=O)N[C@H]1CC[C@@H](S(=O)(=O)c2cccc(C(F)(F)F)c2)CC1 [Compound 96, tert-butyl(1S,4S)-4-(3-(trifluoromethyl)phenylsulfonyl) cyclohexylcarbamate] | > 10 µM | 3.82 µM | 430 nM |
| O=C(CNCC1CC(S(=O)(=O)c2cccc(C(F)(F)F)c2)C1)NC1CCCCC1 (stereo not drawn) [Compound 97, N-cyclohexyl-2-((3-(3-(trifluoromethyl)phenylsulfonyl)cyclobutyl)methylamino)acetamide] | 2.14 µM | > 10 µM | 490 nM |
| CC(C)(C)NC(=O)CNC1(C)CCC(F)(S(=O)(=O)c2cccc(C(F)(F)F)c2)CC1 (stereo not drawn) [Compound 98, N-tert-butyl-2-(4-fluoro-1-methyl-4-(3-(trifluoromethyl)phenylsulfonyl)cyclohexylamino)acetamide] | > 10 µM | > 10 µM | 680 nM |
| O=C(N[C@H]1CC[C@H](CS(=O)(=O)c2cccc(C(F)(F)F)c2)CC1)c1ccc(F)c(C(F)(F)F)c1 [Compound 99, 4-fluoro-3-(trifluoromethyl)-N-((1R,4R)-4-((3-(trifluoromethyl)phenylsulfonyl)methyl)cyclohexyl)benzamide] | > 10 µM | > 10 µM | 3750 nM |
| COc1cc(F)cc(C(=O)N[C@H]2CC[C@H](CS(=O)(=O)c3cccc(C(F)(F)F)c3)CC2)c1 [Compound 100, 3-fluoro-5-methoxy-N-((1R,4R)-4-((3-(trifluoromethyl)phenylsulfonyl)methyl)cyclohexyl)benzamide] | 5.39 µM | 1.79 µM | 2320 nM |
| Cn1nc(C(F)(F)F)cc1C(=O)N[C@H]1CC[C@H](CS(=O)(=O)c2cccc(C(F)(F)F)c2)CC1 [Compound 102, 1-methyl-3-(trifluoromethyl)-N-((1R,4R)-4-((3-(trifluoromethyl)phenylsulfonyl)methyl)cyclohexyl)-1H-pyrazole-5-carboxamide] | > 10 µM | > 10 µM | 630 nM |
| Cn1cc(C(=O)N[C@H]2CC[C@H](CS(=O)(=O)c3cccc(C(F)(F)F)c3)CC2)c(C(F)(F)F)n1 [Compound 106, 1-methyl-3-(trifluoromethyl)-N-((1R,4R)-4-((3-(trifluoromethyl)phenylsulfonyl)methyl)cyclohexyl)-1H-pyrazole-4-carboxamide] | 2.18 µM | > 10 µM | 1940 nM |
| O=C(N[C@H]1CC[C@H](CS(=O)(=O)c2cccc(C(F)(F)F)c2)CC1)c1cc(-c2ccc(F)cc2)n[nH]1 [Compound 108, 3-(4-fluorophenyl)-N-((1R,4R)-4-((3-(trifluoromethyl)phenylsulfonyl)methyl)cyclohexyl)-1H-pyrazole-5-carboxamide] | 6.3 µM | > 10 µM | 720 nM |
| O=C(CN[C@H]1CC[C@H](CS(=O)(=O)c2cccc(C(F)(F)F)c2)CC1)NCC(F)(F)F [Compound 113, N-(2,2,2-trifluoroethyl)-2-((1R,4R)-4-((3-(trifluoromethyl)phenylsulfonyl)methyl)cyclohexylamino)acetamide] | > 10 µM | 5.35 µM | 130 nM |
| CC(C)(C)NC(=O)CN[C@H]1CC[C@H](CS(=O)(=O)c2cccc(C(F)(F)F)c2)CC1 [Compound 114, N-tert-butyl-2-((1R,4R)-4-((3-(trifluoromethyl)phenylsulfonyl)methyl)cyclohexylamino)acetamide] | > 10 µM | > 10 µM | 510 nM |
| CN(C(=O)CN[C@H]1CC[C@H](CS(=O)(=O)c2cccc(C(F)(F)F)c2)CC1)C(C)(C)C [Compound 115, N-tert-butyl-N-methyl-2-((1R,4R)-4-((3-(trifluoromethyl)phenylsulfonyl)methyl)cyclohexylamino)acetamide] | > 10 µM | > 10 µM | 650 nM |
| CCN(CC)C(=O)CN[C@H]1CC[C@H](CS(=O)(=O)c2cccc(C(F)(F)F)c2)CC1 [Compound 116, N,N-diethyl-2-((1R,4R)-4-((3-(trifluoromethyl)phenylsulfonyl)methyl)cyclohexylamino)acetamide] | 8.32 µM | 4.24 µM | 2090 nM |
| O=C(CN[C@H]1CC[C@H](CS(=O)(=O)c2cccc(C(F)(F)F)c2)CC1)NC1CCCCC1 [Compound 118, N-cyclohexyl-2-((1R,4R)-4-((3-(trifluoromethyl)phenylsulfonyl)methyl)cyclohexylamino)acetamide] | > 10 µM | > 10 µM | 790 nM |
| O=C(N[C@H]1CC[C@H](S(=O)(=O)c2cccc(C(F)(F)F)c2)CC1)c1ccc(Cl)c(C(F)(F)F)c1 [Compound 125, 4-chloro-3-(trifluoromethyl)-N-((1R,4R)-4-(3-(trifluoromethyl)phenylsulfonyl)cyclohexyl)benzamide] | 2.91 µM | 2.97 µM | 900 nM |
| COc1cc(Cl)ccc1C(=O)N[C@H]1CC[C@H](S(=O)(=O)c2cccc(C(F)(F)F)c2)CC1 [Compound 127, 4-chloro-2-methoxy-N-((1R,4R)-4-(3-(trifluoromethyl)phenylsulfonyl)cyclohexyl)benzamide] | 1.14 µM | 1.56 µM | 1290 nM |
| O=C(N[C@H]1CC[C@@H](S(=O)(=O)c2cccc(C(F)(F)F)c2)CC1)c1ccc(Cl)c(F)c1 [Compound 130, 4-chloro-3-fluoro-N-((1S,4S)-4-(3-(trifluoromethyl)phenylsulfonyl)cyclohexyl)benzamide] | 0.43 µM | 0.94 µM | 290 nM |
| O=C(N[C@H]1CC[C@@H](S(=O)(=O)c2cccc(C(F)(F)F)c2)CC1)c1ccc(F)c(Cl)c1 [Compound 131, 3-chloro-4-fluoro-N-((1S,4S)-4-(3-(trifluoromethyl)phenylsulfonyl)cyclohexyl)benzamide] | 0.16 µM | 0.61 µM | 160 nM |
| O=C(N[C@H]1CC[C@@H](S(=O)(=O)c2cccc(C(F)(F)F)c2)CC1)c1ccc(Cl)c(C(F)(F)F)c1 [Compound 132, 4-chloro-3-(trifluoromethyl)-N-((1S,4S)-4-(3-(trifluoromethyl)phenylsulfonyl)cyclohexyl)benzamide] | 3.67 µM | 4.55 µM | 1720 nM |
